{"source": "paper PMC3511023", "about": "“Peptides presenting the binding site of human CD4 for the HIV-1 envelope glycoprotein gp120” (Beilstein Journal of Organic Chemistry, 2012)", "note": "“Also recorded” adds a separate entry of the source. Bridges are numbered along the chain shown (N, C = ends). Where no end group is shown, it is not given here. [ ]: non-standard residue; d: D form.", "data": [{"tested_on": "recombinant gp120 from HIV-1 strain IIIB", "assay": "Direct ELISA: binding of gp120 to His-tagged peptides on Ni-chelate plates", "settings": "peptide coated at 4 µM on Ni-chelate plates; gp120(IIIB) 0.25 µg/mL, 2 h; absorbance at 492 nm, blank-corrected; Ar relative to CD4-M1 = 1; at least twice, each in duplicate", "method": "Antibody buffer: Phosphate buffer pH 7.2 containing 1% BSA and 0.1% Tween 20. The wells of 96-well Ni-Chelate plates from Thermo Scientific were coated overnight at 4 °C with peptide solution (100 µL, 4 µM in coupling buffer). After unspecific binding had been blocked with a blocking buffer (1 h at room temperature, gentle agitation), the plates were washed twice. Plates were then incubated for 2 h with 100 µL/well gp120(IIIB) from ImmunoDiagnostics at 0.25 µg/mL (Figure 3, left), or in serial dilutions starting at 2 µg/mL (Figure 3, right) in sample buffer, and washed four times. Following incubation with 100 µL/well sheep-anti-HIV-1-gp120 (D7324) from Aalto Bio Reagents (1:5000 in antibody buffer) for 1 h at room temperature, plates were washed four times with washing buffer, incubated for 1 h at room temperature with 100 µL/well rabbit-anti-sheep-IgG peroxidase conjugate from Dianova (diluted 1:5000 with antibody buffer), and washed four times with washing buffer. Plates were developed with 100 µL/well substrate solution (1 mg/mL OPD in 0.03% H2O2/H2O) in the dark (approx. 20 min), and the reaction was stopped by addition of 2 M sulfuric acid (50 µL/well). Absorbances (A) were read at 492 nm by using a multichannel photometer (Infinite F200 from Tecan).\nRelative Affinities (Ar) were calculated according to the following formula:\nAr = (Apeptide – Ablank) / (A1– Ablank)", "values": [{"substance": "CD4-M4: His6-tagged linear peptide presenting the CDR2-like loop of CD4, residues 34–48 (His6-IKILGNQGSFLTKGP)", "binding to gp120(IIIB) (relative affinity Ar)": "only the longer peptide CD4-M1 is recognized by gp120"}, {"substance": "CD4-M7: CD4 residues 34–48, cyclic, F43-D-Phe (His6-CIKILGNQGS[dF]LTKGPC; disulfide 1-17 (inferred))", "binding to gp120(IIIB) (relative affinity Ar)": "did not bind to gp120"}, {"substance": "CD4-M2: His6-tagged cyclic (disulfide) peptide, CD4 residues 22–64, S23C, D63C", "binding to gp120(IIIB) (relative affinity Ar)": "strongly enhanced"}, {"substance": "CD4-M6: CD4 residues 34–48, cyclic, F43A", "binding to gp120(IIIB) (relative affinity Ar)": "largely abrogated"}, {"substance": "CD4-M5: CD4 residues 34–48, cyclic through a disulfide between added cysteines (His6-CIKILGNQGSFLTKGPC; disulfide 1-17 (inferred))", "binding to gp120(IIIB) (relative affinity Ar)": "strongly enhanced"}, {"substance": "CD4-M1: His6-tagged linear peptide presenting CD4 residues 22–64", "binding to gp120(IIIB) (relative affinity Ar)": "is recognized by gp120"}, {"substance": "CD4-M3: CD4 residues 22–64, cyclic, F43A, R58A, R59A, S23C, D63C", "binding to gp120(IIIB) (relative affinity Ar)": "largely abrogated; also recorded: complete loss of binding"}]}, {"tested_on": "gp120(MN)", "assay": "not given", "settings": "CD4-M5 60 µM or sCD4 0.4 µg/mL pre-incubated 10 min with gp120(MN) 0.5 µg/mL; 2 h on X5-coated plate; absorbance at 492 nm; at least twice, each in duplicate", "values": [{"substance": "CD4-M5: CD4 residues 34–48, cyclic through a disulfide between added cysteines (His6-CIKILGNQGSFLTKGPC; disulfide 1-17 (inferred))", "enhancement of binding of gp120(MN) to the CD4i antibody X5": "able to enhance binding of gp120 to the CD4i antibody mAb X5"}]}]}
